The source of these data is ChEMBL document CHEMBL5257028, “Recent advances in the discovery of heparanase inhibitors as anti-cancer agents” (Eur J Med Chem, 2016).

Data set [1] is described as follows: Anti-angiogenic activity in human endothelial cells assessed as reduction in cell growth incubated for 11 days by PECAM-1 staining based image analysis. The note with it: 264 h.
Data set [2] in a line: Half life in mouse. Type of data set: ADME, organism-based. Conditions: in vivo.
Another data set concerns B16-F10. Description: Antimigratory activity against mouse B16-F10 cells assessed as inhibition on cell migration.
For data set [3], the target named is T1, Heparanase (Homo sapiens) (UniProt Q9Y251).
T1 sequence (whole entry): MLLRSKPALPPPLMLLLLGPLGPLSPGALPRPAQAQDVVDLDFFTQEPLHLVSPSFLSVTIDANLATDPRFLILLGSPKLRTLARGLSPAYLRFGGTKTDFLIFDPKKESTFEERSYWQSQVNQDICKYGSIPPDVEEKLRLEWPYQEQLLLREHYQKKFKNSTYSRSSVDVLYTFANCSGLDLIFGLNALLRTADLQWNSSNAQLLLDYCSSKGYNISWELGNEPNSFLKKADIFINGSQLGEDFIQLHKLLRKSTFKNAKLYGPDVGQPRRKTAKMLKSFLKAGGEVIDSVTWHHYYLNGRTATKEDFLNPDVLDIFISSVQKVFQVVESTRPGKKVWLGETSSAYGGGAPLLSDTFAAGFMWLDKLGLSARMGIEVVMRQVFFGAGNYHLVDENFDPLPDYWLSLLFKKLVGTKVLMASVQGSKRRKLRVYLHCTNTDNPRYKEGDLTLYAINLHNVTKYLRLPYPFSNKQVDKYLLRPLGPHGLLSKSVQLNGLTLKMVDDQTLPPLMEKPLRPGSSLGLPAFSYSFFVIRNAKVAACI
Put plainly: Inhibition of recombinant human heparanase at 5 ug/ml incubated for 4 hrs by beta-scintillation counter analysis relative to control. Conditions: dose 5.0 µg/ml.

A further data set concerns HeLa. Put plainly: Cytotoxicity against human HeLa cells assessed as growth inhibition. The format is functional, cell-based.
The next data set concerns the target T2, P-selectin (Mus musculus, UniProt Q01102).
T2 sequence (Q01102 whole entry): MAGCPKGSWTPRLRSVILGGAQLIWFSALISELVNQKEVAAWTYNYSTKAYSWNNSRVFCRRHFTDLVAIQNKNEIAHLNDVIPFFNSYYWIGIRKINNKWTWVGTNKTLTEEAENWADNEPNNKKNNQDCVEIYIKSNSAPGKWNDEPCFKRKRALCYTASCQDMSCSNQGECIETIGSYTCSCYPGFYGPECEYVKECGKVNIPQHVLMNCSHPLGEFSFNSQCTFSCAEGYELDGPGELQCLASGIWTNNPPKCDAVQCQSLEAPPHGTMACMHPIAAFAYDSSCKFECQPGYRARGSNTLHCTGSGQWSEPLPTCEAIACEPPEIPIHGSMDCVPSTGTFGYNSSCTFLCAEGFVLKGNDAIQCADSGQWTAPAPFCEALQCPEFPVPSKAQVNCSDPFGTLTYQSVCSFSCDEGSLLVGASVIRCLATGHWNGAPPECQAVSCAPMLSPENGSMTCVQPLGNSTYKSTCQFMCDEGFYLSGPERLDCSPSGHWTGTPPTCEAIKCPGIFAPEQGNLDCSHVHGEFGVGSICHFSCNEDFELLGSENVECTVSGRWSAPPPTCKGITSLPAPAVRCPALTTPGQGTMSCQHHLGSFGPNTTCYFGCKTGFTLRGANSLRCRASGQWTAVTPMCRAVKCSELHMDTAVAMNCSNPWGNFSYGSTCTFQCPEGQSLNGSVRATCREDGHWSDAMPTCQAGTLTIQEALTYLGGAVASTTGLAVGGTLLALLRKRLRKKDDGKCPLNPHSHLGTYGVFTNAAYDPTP
Put plainly: Inhibition of mouse P-selectin assessed as inhibition of adhesion to human LS180 cells to immobilized P-selectin incubated for 1 hrs by ELISA. Type of data set: cell-based. For orientation: An ELISA detects its analyte on a solid surface through an enzyme-linked reagent.

Consider `COc1ccc(N2C(=O)c3ccc(C(=O)O)cc3C2=O)cc1-c1nc2cc(-c3ccc4c(c3)OCO4)ccc2o1`, for which the IC50 in data set [1] was determined as 3 µM.

As for `O=C(O)Cc1ccc2oc(-c3ccc(/C=C/C(=O)Nc4ccc(Cl)cc4Cl)cc3F)nc2c1`, the IC50 in data set [1] stood at 2 µM.

On to `O=C(O)Cc1nc(-c2ccc(-c3ccc(NC(=O)/C=C/c4ccc(Br)cc4)cc3Cl)o2)cs1`, for which the half-life in data set [2] was 30 min. Besides, the half-maximal inhibitory concentration (IC50) in data set [1] was 1 µM.

As to `CCCCCCCCCCCCCCCc1c(O[C@H]2O[C@H](C(=O)O)[C@@H](O)[C@H](O)[C@H]2O)ccc(O)c1C(=O)Oc1cc(C)c(C(=O)O)c(O)c1`, in the data set on B16-F10, the IC50 came to 15 µM.

On to `O=S(=O)(O)OC[C@@H]1O[C@@H](O[C@@H]2[C@@H](OS(=O)(=O)O)[C@H](OS(=O)(=O)O)C(C3O[C@H](COS(=O)(=O)O)[C@@H](O[C@H]4O[C@H](COS(=O)(=O)O)[C@@H](O[C@H]5O[C@H](COS(=O)(=O)O)[C@@H](OS(=O)(=O)O)[C@H](OS(=O)(=O)O)[C@H]5OS(=O)(=O)O)[C@H](OS(=O)(=O)O)[C@H]4OS(=O)(=O)O)[C@H](OS(=O)(=O)O)[C@H]3OS(=O)(=O)O)O[C@H]2COS(=O)(=O)O)[C@@H](OS(=O)(=O)O)[C@H](OS(=O)(=O)O)[C@H]1O[C@@H]1O[C@@H](COS(=O)(=O)O)[C@H](OS(=O)(=O)O)[C@@H](OS(=O)(=O)O)[C@@H]1OS(=O)(=O)O` (stereo in doubt; form 1) [listing 1 of 2 here], for which the inhibition in data set [3] amounted to 85%.

Take `COc1ccc(C2CNC(c3ccccc3F)OC23CCCCC3)cc1` (configuration not stated): the IC50 in the data set with HeLa was 48.2 µM.

`O=S(=O)(O)OC[C@@H]1O[C@@H](O[C@@H]2[C@@H](OS(=O)(=O)O)[C@H](OS(=O)(=O)O)C(C3O[C@H](COS(=O)(=O)O)[C@@H](O[C@H]4O[C@H](COS(=O)(=O)O)[C@@H](O[C@H]5O[C@H](COS(=O)(=O)O)[C@@H](OS(=O)(=O)O)[C@H](OS(=O)(=O)O)[C@H]5OS(=O)(=O)O)[C@H](OS(=O)(=O)O)[C@H]4OS(=O)(=O)O)[C@H](OS(=O)(=O)O)[C@H]3OS(=O)(=O)O)O[C@H]2COS(=O)(=O)O)[C@@H](OS(=O)(=O)O)[C@H](OS(=O)(=O)O)[C@H]1O[C@@H]1O[C@@H](COS(=O)(=O)O)[C@H](OS(=O)(=O)O)[C@@H](OS(=O)(=O)O)[C@@H]1OS(=O)(=O)O` (stereo in doubt; form 2): in data set [3], the inhibition is 58%.

Take `CCCCCCCCCCCCCCCc1c(O[C@H]2O[C@H](C(=O)OC)[C@@H](O)[C@H](O)[C@H]2O)ccc(O)c1C(=O)Oc1cc(C)c(C(=O)O)c(O)c1`: in the data set with B16-F10, the IC50 is 30 µM.

As to `O=S(=O)(O)OC[C@@H]1O[C@@H](O[C@@H]2[C@@H](OS(=O)(=O)O)[C@H](OS(=O)(=O)O)C(C3O[C@H](COS(=O)(=O)O)[C@@H](O[C@H]4O[C@H](COS(=O)(=O)O)[C@@H](O[C@H]5O[C@H](COS(=O)(=O)O)[C@@H](OS(=O)(=O)O)[C@H](OS(=O)(=O)O)[C@H]5OS(=O)(=O)O)[C@H](OS(=O)(=O)O)[C@H]4OS(=O)(=O)O)[C@H](OS(=O)(=O)O)[C@H]3OS(=O)(=O)O)O[C@H]2COS(=O)(=O)O)[C@@H](OS(=O)(=O)O)[C@H](OS(=O)(=O)O)[C@H]1O[C@@H]1O[C@@H](COS(=O)(=O)O)[C@H](OS(=O)(=O)O)[C@@H](OS(=O)(=O)O)[C@@H]1OS(=O)(=O)O` (stereo in doubt; form 1) [listing 2 of 2 here], the concentration for half-maximal inhibition (IC50) at P-selectin was 58.2 µM.

With `O=C(O)c1ccc2c(c1)C(=O)N(c1cccc(-c3nc4ccccc4o3)c1)C2=O`, the IC50 in data set [1] turned out to be 40 µM.

Take `CCCNc1ccc(N2C(=O)c3ccc(C(=O)O)cc3C2=O)cc1-c1nc2cc(-c3ccc(Br)cc3)ccc2o1`: the IC50 in data set [1] stood at 0.25 µM.

The term IC50 denotes the concentration that inhibits the measured activity by half. As a reminder, the half-life is the time needed for the level to fall by half in the phase considered. Broadly, the inhibition is the drop in the measured response relative to a control, in per cent.
